# Test results: US12268666B2, “Spray-dried dispersions, formulations, and polymorphs of (S)-5-amino-3-(4-((5-fluoro-2-methoxybenzamido)methyl)phenyl)-1-(1,1,1-trifluoropropan-2-yl)-1H-pyrazole-4-carboxamide” (Loxo Oncology, Inc., priority 2018, dated 2025)
# Where two headings read alike, the source gives them in different places.
# Experiments:
# [1] = Dog pharmacokinetics, crystalline compound in suspension (Example 15 Part A); type: in vivo, beagle dogs; details: for bioavailability / AUC(0-t) / Cmax: both sexes, beagle, dog, plasma, 30 mg/kg; for bioavailability: oral, AUC0-t oral vs AUC0-inf of 2-mg/kg IV dose, read-out: F (bioavailability); for AUC(0-t) / Cmax: po, suspension in 0.5% HPMC
# Description: Crystalline compound of Formula I is prepared as a suspension in 0.5% hydroxypropyl methylcellulose (IPMC) at 6 mg/mL for administration of 30 mg/kg; no correction factor is used for dose formulation. Three male and five female beagle dogs are administered a single PO gavage dose of 30 mg/kg compound of Formula I formulated as a suspension in 0.5% HPMC. All animals are administered the suspension of the crystalline compound of Formula I in fed and fasted states, following a 7-day washout period between dosing periods/feeding conditions. For both feeding conditions, access to food is removed at least 12 hours prior to dose administration. In Crossover #1, 6 dogs are fed a mix of canned and dry food approximately 45 minutes prior to dose administration (Group 1), and 2 dogs are administered the compound of Formula I in a fasted state and fed 4 hours after dosing (Group 2). In Crossover #2, the 2 dogs that are administered the compound of Formula I in the fasted state in Crossover #1 are fed a mix of canned and dry food approximately 45 minutes prior to dose administration (Group 3), and 5 of the dogs that are administered the compound of Formula I in the fed state in Crossover #1 are administered the compound of Formula I in a fasted state and fed 4 hours after dosing (Group 4) (Table 26). The same 3 males and 3 females are assigned to Groups 1 and 4 (with the exception of one female, which is assigned to Group 1 but is not included in Group 4), and the same 2 females are assigned to Groups 2 and 3.
# Blood samples are collected via the jugular vein following PO doses at 0 (pre-dose), 0.5, 1, 2, 4, 8 24 and 48 hours into EDTAblood collection tubes. Samples are centrifuged at 3500 rpm for 10 minutes at 4-8° C. and the plasma fraction is stored frozen at −70° C. prior to bioanalytical analysis. Concentrations of the compound of Formula I in dog plasma are determined by LC-MS/MS following protein precipitation with acetonitrile. Non-compartmental pharmacokinetic parameters of the compound of Formula I are calculated by conventional methods using individual plasma concentration profiles over time and Microsoft Excel.
# [2] = In vivo dog bioavailability and pharmacokinetic study, reference vs SDD; details: beagle, plasma, po, 30 mg/kg, dogs, suspension in 0.5% HPMC in water, mean ± SD
# Description: Dogs are fasted overnight prior to dosing (fasted) or fed canned food 45 min prior to dosing (fed). Samples for pharmacokinetic (PK) analysis are collected at 30 min, 1, 2, 4, 8, 24, and 48 hours post-dose. Blood samples are processed to plasma and stored frozen at −70° C. until analysis of the compound of Formula I concentrations. The concentration of the compound of Formula I in the plasma is determined by reverse phase HPLC with mass spectrometry detection. The compound of Formula I area under the curve is calculated by the trapezoidal method over the time course of the study. ANOVA with Dunett correction for multiple comparisons is used to determine statistical significant of differences from the reference formulation. The values of AUC and Cmax are reported as averages±standard deviation for each group of dogs in Table 24.
# [3] = beagle dogs, single PO 30 mg/kg
# [4] = beagle dogs, fasted, single PO 30 mg/kg
# [5] = beagle dogs, fed, single PO 30 mg/kg
Structure (SMILES),"AUC0-t fold change (fed/fasted ratio) [1, 3]","Cmax fold change (fed/fasted ratio) [1, 3]",bioavailability ([1]; fasted),bioavailability ([1]; fed),"AUC(0-t) [1, 4]","Cmax [1, 4]","AUC(0-t) [1, 5]","Cmax [1, 5]",AUC ([2]; fasted),Cmax ([2]; fasted),AUC ([2]; fed),Cmax ([2]; fed)
"COc1ccc(F)cc1C(=O)NCc1ccc(-c2nn([C@@H](C)C(F)(F)F)c(N)c2C(N)=O)cc1 [Crystalline compound of Formula I, (S)-5-amino-3-(4-((5-fluoro-2-methoxybenzamido)methyl)phenyl)-1-(1,1,1-trifluoropropan-2-yl)-1H-pyrazole-4-carboxamide]",7.5 ± 3.3,4.8 ± 2.1,5.09%,29.7%,8180 ± 3680 ng·h/mL,597 ± 197 ng/mL,47800 ± 21300 ng·h/mL,2370 ± 679 ng/mL,,,,
"COc1ccc(F)cc1C(=O)NCc1ccc(-c2nn([C@@H](C)C(F)(F)F)c(N)c2C(N)=O)cc1 [Reference, (S)-5-amino-3-(4-((5-fluoro-2-methoxybenzamido)methyl)phenyl)-1-(1,1,1-trifluoropropan-2-yl)-1H-pyrazole-4-carboxamide]",,,,,,,,,11300 ng·h/mL,597 ng/mL,47800 ng·h/mL,2370 ng/mL
